Results taken from patent publication US7125990B2, “Imidazolyl derivatives as corticotropin releasing factor inhibitors” (Bristol-Myers Squibb COmpany, priority 2001, dated 2006).

Target: T1, CRF1 receptors (Homo sapiens, UniProt P34998)
T1 construct: endogenous in cells; host or cells: IMR-32 cells, transformed with 2.5 µM 5'-bromo-2'-deoxyuridine for 10 days; membrane preparation
T1 sequence (P34998 24-415): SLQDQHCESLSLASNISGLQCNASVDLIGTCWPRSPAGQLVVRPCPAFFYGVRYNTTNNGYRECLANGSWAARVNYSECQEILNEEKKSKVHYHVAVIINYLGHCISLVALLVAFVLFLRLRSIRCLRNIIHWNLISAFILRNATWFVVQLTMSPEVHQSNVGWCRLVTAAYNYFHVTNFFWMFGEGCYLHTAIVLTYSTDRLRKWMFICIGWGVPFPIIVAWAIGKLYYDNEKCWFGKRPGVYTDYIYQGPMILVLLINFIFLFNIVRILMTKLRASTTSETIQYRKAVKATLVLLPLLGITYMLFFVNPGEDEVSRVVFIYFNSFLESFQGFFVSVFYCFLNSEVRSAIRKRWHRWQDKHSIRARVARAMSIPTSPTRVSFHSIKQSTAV
Experiment: CRF1 receptor radioligand binding assay ([125I]-oCRF competition, IMR-32 cell membranes)
Conditions: IMR-32 cell membranes, [125I]-oCRF 100 pM; read-out: Ki (CRF-1R)
Experimental: CRF1 receptor antagonists, by occupying the same receptors, blocks the accessibility of the receptors to CRF, a hypothalamic factor mediating body's responses to physiological and psychological stress. The following radioligand binding assay examines the ability of the antagonists to bind the CRF1 receptors by assessing their ability to compete with binding of CRF to the receptors in cell membrane.
Tissue culture and membrane preparation. IMR-32 cells were grown at 37° C. in 5% CO2 as a monolayer in medium consisting of MEM supplemented with 10% heat-inactivated fetal bovine serum, 0.1 mM nonessential amino acids, 1 mM sodium pyruvate and 2 mM L-glutamine. […] After transformation, cells were rinsed twice with phosphate-buffered saline, and incubated for 10–15 min. at 4° C. in homogenization buffer consisting of 50 mM Tris (pH 7.2), 10 mM MgCl2 and 2 mM EGTA. Cells were transferred from plates to polypropylene tubes (16×100 mm), homogenized and centrifuged at 32,000×g for 15 min. Pellets were resuspended by homogenization in buffer and centrifuged at 32,000×g for 15 min. Pellets were resuspended in homogenization buffer then stored at −80° C. until needed.
Radioligand binding assays. […] The assay buffer consisted of 50 mM Tris (pH 7.2), 10 mM MgCl2, 0.5% BSA, 0.005% Triton X-100, 10 μg/mL aprotinin and 10 μg/mL leupeptin. Assays were stopped by addition of ice-cold wash buffer (50 mM Tris, pH 7.4 and 0.2% BSA). Filtration over glass fiber filters (Whatman GF/B) previously soaked in 50 mM Tris, pH 7.2 and 1% BSA was carried out using a Brandel cell harvester. Filters were washed with 10 mL of ice-cold wash buffer. Non-specific binding was defined with 10 μM oCRF. IC50 values for oCRF and test compounds were calculated by nonlinear regression using a one-site binding curve (GraphPad Prism).

| Compound | Ki [µM] |
| --- | --- |
| CCCN(Cc1cccc(F)c1)C(=O)c1c(CC)nc2n1CCN2c1c(C)cc(C)cc1C [Example 26, 2-Ethyl-7-(2,4,6-trimethyl-phenyl)-6,7-dihydro-5H-imidazo[1,2-a]imidazole-3-carboxylic acid (3-fluoro-benzyl)-propyl-amide] | < 10 |
| CCc1nc2n(c1C(=O)N(CC1CC1)CC(F)(F)F)CCN2c1c(C)cc(C)cc1Cl [Example 27, 7-(2-Chloro-4,6-dimethyl-phenyl)-2-ethyl-6,7-dihydro-5H-imidazo[1,2-a]imidazole-3-carboxylic acid cyclopropylmethyl-(2,2,2-trifluoro-ethyl)-amide] | < 0.1 |
| CCCN(CC1CC1)C(=O)c1c(CC)nc2n1CCN2c1c(C)cc(C)cc1Cl [Example 28, 7-(2-Chloro-4,6-dimethyl-phenyl)-2-ethyl-6,7-dihydro-5H-imidazo[1,2-a]imidazole-3-carboxylic acid cyclopropylmethyl-propyl-amide] | < 0.1 |
| CCc1nc2n(c1C(=O)N(CCC(F)(F)F)CC1CC1)CCN2c1c(C)cc(C)cc1Cl [Example 29, 7-(2-Chloro-4,6-dimethyl-phenyl)-2-ethyl-6,7-dihydro-5H-imidazo[1,2 a]imidazole-3-carboxylic acid cyclopropylmethyl-(3,3,3-trifluoro-propyl)-amide] | < 1 |
| CCc1nc2n(c1C(=O)N(CC1CC1)CC(F)(F)F)CCN2c1c(C)cc(Cl)cc1Cl [Example 30, 7-(2,4-Dichloro-6-methyl-phenyl)-2-ethyl-6,7-dihydro-5H-imidazo[1,2-a]imidazole-3-carboxylic acid cyclopropylmethyl-(2,2,2-trifluoro-ethyl)-amide] | < 0.1 |
| CCCN(CC1CC1)C(=O)c1c(CC)nc2n1CCN2c1c(C)cc(Cl)cc1Cl [Example 31, 7-(2,4-Dichloro-6-methyl-phenyl)-2-ethyl-6,7-dihydro-5H-imidazo[1,2-a]imidazole-3-carboxylic acid cyclopropylmethyl-propyl-amide] | < 0.1 |
| CCc1nc2n(c1C(=O)N(CC1CC1)CC(F)(F)C(F)(F)F)CCN2c1c(C)cc(Cl)cc1Cl [Example 32, 7-(2,4-Dichloro-6-methyl-phenyl)-2-ethyl-6,7-dihydro-5H-imidazo[1,2-a]imidazole-3-carboxylic acid cyclopropylmethyl-(2,2,3,3,3-pentafluoro-propyl)-amide] | < 0.1 |
| CCCN(CC(F)(F)F)C(=O)c1c(CC)nc2n1CCN2c1c(C)cc(Cl)cc1Cl [Example 33, 7-(2,4-Dichloro-6-methyl-phenyl)-2-ethyl-6,7-dihydro-5H-imidazo[1,2-a]imidazole-3-carboxylic acid propyl-(2,2,2-trifluoro-ethyl)-amide] | < 0.1 |
| CCc1nc2n(c1C(=O)N(CC1CC1)CC(F)(F)F)CCN2c1ccc(C(C)C)cc1Br [Example 34, 7-(2-Bromo-4-isopropyl-phenyl)-2-ethyl-6,7-dihydro-5H-imidazo[1,2-a]imidazole-3-carboxylic acid cyclopropylmethyl-(2,2,2-trifluoro-ethyl)-amide] | < 1 |
| CCCN(CC1CC1)C(=O)c1c(CC)nc2n1CCN2c1ccc(C(C)C)cc1Br [Example 35, 7-(2-Bromo-4-isopropyl-phenyl)-2-ethyl-6,7-dihydro-5H-imidazo[1,2-a]imidazole-3-carboxylic acid cyclopropylmethyl-propyl-amide] | < 10 |
| CCCN(CC(F)(F)F)C(=O)c1c(CC)nc2n1CCN2c1ccc(C(C)C)cc1Br [Example 36, 7-(2-Bromo-4-isopropyl-phenyl)-2-ethyl-6,7-dihydro-5H-imidazo[1,2-a]imidazole-3-carboxylic acid propyl-(2,2,2-trifluoro-ethyl)-amide] | < 1 |
| CCc1nc2n(c1C(=O)N(CC1CC1)CC(F)(F)C(F)(F)F)CCN2c1ccc(C(C)C)cc1Br [Example 37, 7-(2-Bromo-4-isopropyl-phenyl)-2-ethyl-6,7-dihydro-5H-imidazo[1,2-a]imidazole-3-carboxylic acid cyclopropylmethyl-(2,2,3,3,3-pentafluoro-propyl)-amide] | < 1 |
| CCCN(CC1CCC1)C(=O)c1c(CC)nc2n1CCN2c1ccc(C(C)C)cc1Br [Example 38, 7-(2-Bromo-4-isopropyl-phenyl)-2-ethyl-6,7-dihydro-5H-imidazo[1,2-a]imidazole-3-carboxylic acid cyclobutylmethyl-propyl-amide] | < 10 |
| CCc1nc2n(c1C(=O)N(CCC(F)(F)F)CC1CC1)CCN2c1ccc(C(C)C)cc1Br [Example 39, 7-(2-Bromo-4-isopropyl-phenyl)-2-ethyl-6,7-dihydro-5H-imidazo[1,2-a]imidazole-3-carboxylic acid cyclopropylmethyl-(3,3,3-trifluoro-propyl)-amide] | < 10 |
| CCc1nc2n(c1C(=O)N(CC)CC1CC1)CCN2c1ccc(C(C)C)cc1Br [Example 40, 7-(2-Bromo-4-isopropyl-phenyl)-2-ethyl-6,7-dihydro-5H-imidazo[1,2-a]imidazole-3-carboxylic acid cyclopropylmethyl-ethyl-amide] | < 10 |
| CCCN(CCc1ccccc1)C(=O)c1c(CC)nc2n1CCN2c1c(C)cc(C)cc1Br [Example 41, 7-(2-Bromo-4,6-dimethyl-phenyl)-2-ethyl-6,7-dihydro-5H-imidazo[1,2-a]imidazole-3-carboxylic acid phenethyl-propyl-amide] | < 1 |
| CCCN(CC1CCC1)C(=O)c1c(CC)nc2n1CCN2c1c(C)cc(C)cc1Br [Example 42, 7-(2-Bromo-4,6-dimethyl-phenyl)-2-ethyl-6,7-dihydro-5H imidazo[1,2-a]imidazole-3-carboxylic acid cyclobutylmethyl-propyl-amide] | < 1 |
| CCc1nc2n(c1C(=O)N(CC)CC1CCC1)CCN2c1c(C)cc(C)cc1Br [Example 43, 7-(2-Bromo-4,6-dimethyl-phenyl)-2-ethyl-6,7-dihydro-5H-imidazo[1,2-a]imidazole-3-carboxylic acid cyclobutylmethyl-ethyl-amide] | < 1 |

Other lines, results leading:

| Ki [µM] | Compound |
| --- | --- |
| < 0.1 | CCc1nc2n(c1C(=O)N(CC1CC1)CC(F)(F)F)CCN2c1c(C)cc(C)cc1Br [Example 44, 7-(2-Bromo-4,6-dimethyl-phenyl)-2-ethyl-6,7-dihydro-5H-imidazo[1,2-a]imidazole-3-carboxylic acid cyclopropylmethyl-(2,2,2-trifluoro-ethyl)-amide] |
| < 1 | CCCN(CCC(F)(F)F)C(=O)c1c(CC)nc2n1CCN2c1c(C)cc(C)cc1Br [Example 45, 7-(2-Bromo-4,6-dimethyl-phenyl)-2-ethyl-6,7-dihydro-5H-imidazo[1,2-a]imidazole-3-carboxylic acid propyl-(3,3,3-trifluoro-propyl)-amide] |
| < 10 | CCCN(CC1CC1)C(=O)c1c(CC)nc2n1CCN2c1c(C)cc(C)cc1Br [Example 46, 7-(2-Bromo-4,6-dimethyl-phenyl)-2-ethyl-6,7-dihydro-5H-imidazo[1,2-a]imidazole-3-carboxylic acid cyclopropylmethyl-propyl-amide] |
| < 1 | CCCC(O)(CCC)c1c(CC)nc2n1CCN2c1c(C)cc(C)cc1C [Example 47, 4-[2-Ethyl-7-(2,4,6-trimethyl-phenyl)-6,7-dihydro-5H-imidazo[1,2-a]imidazol-3-yl]-heptan-4-ol] |
| < 0.1 | CCC=C(CCC)c1c(CC)nc2n1CCN2c1c(C)cc(C)cc1C [Example 48, 6-Ethyl-5-(1-propyl-but-1-enyl)-1-(2,4,6-trimethyl-phenyl)-2,3-dihydro-1H-imidazo[1,2-a]imidazole] |
| < 1 | CCCC(CCC)c1c(CC)nc2n1CCN2c1c(C)cc(C)cc1C [Example 49, 6-Ethyl-5-(1-propyl-butyl)-1-(2,4,6-trimethyl-phenyl)-2,3-dihydro-1H-imidazo[1,2-a]imidazole] |
| < 0.1 | CCC=C(CCC)c1c(CC)nc2n1CCN2c1c(C)cc(C)cc1Cl [Example 50, 1-(2-Chloro-4,6-dimethyl-phenyl)-6-ethyl-5-(1-propyl-but-1-enyl)-2,3-dihydro-1H-imidazo[1,2-a]imidazole] |
| < 10 | CCCN(CC1CC1)C(=O)c1c(CC)nc2n1CCCN2c1c(C)cc(C)cc1C [Example 54, 2-Ethyl-8-(2,4,6-trimethyl-phenyl)-5,6,7,8-tetrahydro-imidazo[1,2-a]pyrimidine-3-carboxylic acid cyclopropylmethyl-propyl-amide] |
